Patent US20070202090A1, “Water Soluble Form Of Coenzyme Q10 In The Form Of An Inclusion Complex With Beta-Cyclodextrin, Process Of Preparing, And Use Thereof” (priority 2004, published 2007)

Experiments:
[1] = Comparison of milk-solubility of CoQ10 and CDQ10 (saturation, HPLC); type: physicochemical; conditions: fresh milk 3.5% milk fat, room temperature, addition till saturation, filtrate
Procedure: β-Cyclodextrin (1.575 g, 1.39 mmole) was dissolved in 13 mL of distilled water at 60-70° C. Then 1.00 g (1.16 mmole) of CoQ10 were added to the dissolved β-cyclodextrin, and the mixture was stirred for 20 minutes at 60-70° C. After stirring for some minutes the CDQ10 complex started to precipitate. The reaction mixture was kept stirring for about 8 hours at 60-70° C., and about 2 hours at room temperature, till the formation of a homogenous paste. Then the obtained mixture was under stirring at room temperature added to fresh milk containing 3.5% of milk fat (Ljubljanske mlekarne) till saturation. Into another milk aliquot was added under identical conditions CoQ10 till saturation. […]

[2] = Dissolution of CoQ10 in dairy products and orange juice; type: physicochemical; conditions: about 35-37 mg CoQ10 in about 200 g product
Procedure: β-Cyclodextrin (7.90 g, 6.95 mmole) was dissolved in distilled water (68 mL) at 65-70° C., and under stirring was added CoQ10 (5.00 g, 5.79 mmole). After about 30 minutes the CDQ10 complex precipitated. The reaction mixture was kept stirring for about 10 hours at 70° C., and 10 hours at room temperature, till the formation of an intensive yellow coloured paste. Then equal aliquots (each 500 μL containing about 37 mg of CoQ10 in the form of CDQ10) of the obtained mixture were admixed to about 200 g each: milk (3.5% of milk fat, Ljubljanske miekarne), liquid yoghurt (1.3% of milk fat, Ljubljanske miekarne), fruit yoghurt (peach, Ljubljanske miekarne) and orange juice (100%, Rauch). The obtained preparations were organoleptically compared with non-lemented supplemented milk, liquid yoghurt, fruit yoghurt and orange juice, as well as with those supplemented each with about 35-37 mg CoQ10. As CoQ10 was not dissolved in said products, they were not included in the tests. The tests were performed by 10-21 randomly chosen consumers.

- Concentration of CoQ10 in milk [1]: 3.2 µg/g
- dissolution in milk, liquid yoghurt, fruit yoghurt and orange juice [2]: not dissolved
Compound: COC1=C(OC)C(=O)C(C/C=C(\C)CC/C=C(\C)CC/C=C(\C)CC/C=C(\C)CC/C=C(\C)CC/C=C(\C)CC/C=C(\C)CC/C=C(\C)CC/C=C(\C)CCC=C(C)C)=C(C)C1=O [CoQ10, coenzyme Q10]
